The values below come from patent US20230010299A1, “HETEROCYCLIC TRPML1 AGONISTS” (LIBRA THERAPEUTICS, INC., priority 2019, published 2023).

This assay has as its target T1, TRPML1 (Homo sapiens, UniProt Q9GZU1).
T1 construct: expressed in transfected cells
In words: Cellular TRPML1 assay (FLIPR TETRA, GCaMP6f calcium read-out). The class given is cell-based. Particulars: HEK T-REx/GCaMP6f/TRPML1 cells; Ca2+ response over 300 s, normalized to ML-SA1 50 μM; Ca2+ free or Optimem condition not given; read-out: Ec50 (Activity of TRPML1 agonists). Here is the method: Buffers and reagents • PBS (D-PBS without calcium and magnesium; EuroClone) • Trypsin (Trypsin 0.05%, EDTA 0.02% in PBS; EuroClone) • DMSO (Sigma) • Ca^2+ free Tyrode's buffer: in-house solution (130 mM NaCl, 5 mM KCl, 1 mM MgCl2, 5 mM NaHCO3, 20 mM HEPES in water at pH 7.4; sterile filtered). • Opti-MEM (Gibco) • Agonist: ML-SA1 (Sigma); stock: 60 mM in DMSO, stored at −20° C. • Blocker: ML-SI3 (in house synthesis); stock: 20 mM in DMSO, stored at −20° C.
The final clone for the TRPML1 assay is HEK T-REx/GCaMP6f/TRPML1.
GCaMP6f is a genetically encoded calcium indicator that is stably expressed in this cell line and used as a fluorescent read-out.
Experiments are performed in 384 MTP format. Cells are seeded at 15000 cells/well either in 25 μl/well of growth medium or in 20 μl/well of Optimem+0.5% FBS without selection antibiotics. Twenty-four hours later, cells are assayed for the response to various compounds using the Ca^2+ sensitive GCaMP6f protein stably expressed in the cells as readout.
The experiment is performed in a 384-well format according to the following procedures for either Ca^2+ free or Optimem conditions: • Ca^2+ free condition (in absence of extracellular Ca^2+): • 24 h after seeding, pre-incubate the cells at room temperature for about 10′. • Then remove the culture medium and replace it with 20 μL of Ca^2+ free Tyrode's buffer. • Start the experiment at the FLIPR^TETRA by injecting 10 μL/w of 3× concentrated test compounds and controls in Ca^2+ free Tyrode's buffer. Monitor the kinetic response over a period of 300 seconds. • Final DMSO concentration: 0.5% • Optimem condition (in presence of extracellular Ca^2+): • 24 h after seeding, pre-incubate the cells at room temperature for about 10′. • Start the experiment at the FLIPR^TETRA by injecting 10 μL/w of 3× concentrated test compounds and controls in Ca^2+ free Tyrode's buffer. Monitor the kinetic response over a period of 300 seconds. • Final DMSO concentration: 0.5%
Data from FLIPR^TETRA measurements are analyzed with the Genedata Screener® software.
Stimulator controls (Col 2): injection of ML-SA1 EC100 (50 μM) in alternated wells positions
Neutral controls (Col 2): injection of 0 mM Ca^2+ free Tyrode's buffer in alternated wells positions.
Test wells (Col 3-22): test compounds dose response curve from either 100 μM with 1:2 dilution steps or from 50 μM with 1:3.16 dilution steps.

T1 sequence (Q9GZU1 whole entry): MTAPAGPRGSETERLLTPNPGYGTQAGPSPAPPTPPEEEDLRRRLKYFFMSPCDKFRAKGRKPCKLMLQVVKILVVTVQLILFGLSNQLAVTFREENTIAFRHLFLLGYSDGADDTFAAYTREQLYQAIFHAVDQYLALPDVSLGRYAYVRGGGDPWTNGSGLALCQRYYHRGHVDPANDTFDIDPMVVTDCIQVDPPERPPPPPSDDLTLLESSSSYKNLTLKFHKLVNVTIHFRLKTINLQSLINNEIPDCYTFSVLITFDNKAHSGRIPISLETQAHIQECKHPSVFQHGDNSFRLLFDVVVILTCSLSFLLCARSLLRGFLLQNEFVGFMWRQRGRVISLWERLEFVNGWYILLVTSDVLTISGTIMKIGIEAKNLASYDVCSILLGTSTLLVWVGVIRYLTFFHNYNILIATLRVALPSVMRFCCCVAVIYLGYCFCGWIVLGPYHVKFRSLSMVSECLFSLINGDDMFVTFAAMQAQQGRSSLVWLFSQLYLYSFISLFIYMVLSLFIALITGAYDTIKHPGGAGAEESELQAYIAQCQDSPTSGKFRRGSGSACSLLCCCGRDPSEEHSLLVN

In the case of `Cc1ccccc1S(=O)(=O)Nc1ccccc1N1CCN(C(=O)OC(C)(C)C)CC1` [Example 47, tert-butyl 4-(2-((2-methylphenyl)sulfonamido)phenyl)piperazine-1-carboxylate], the EC50 turned out to be 5.2 µM. On to `CC(C)c1ccc(S(=O)(=O)Nc2ccccc2N2CCN(C(=O)OC(C)(C)C)CC2)cc1` [Example 28, tert-butyl 4-(2-((4-isopropylphenyl)sulfonamido)phenyl)piperazine-1-carboxylate], for which the EC50 came to 2.9 µM. The result for `CC(C)(C)c1ccc(S(=O)(=O)Nc2ccccc2N2CC3CCC2C3)s1` (stereo not drawn) [Example 16, N-(2-{2-azabicyclo[2.2.1]heptan-2-yl}phenyl)-5-tert-butylthiophene-2-sulfonamide] reads 14.6 µM.

Consider `Cc1ccc(S(=O)(=O)Nc2ccccc2N2CCN(C(=O)OC(C)(C)C)CC2)c2cccnc12` [Example 95, tert-butyl 4-(2-((8-methylquinoline)-5-sulfonamido)phenyl)piperazine-1-carboxylate], for which the half-maximal effective concentration (EC50) came out at 10.7 µM. The result for `CCCOC1CCN(c2ccccc2NS(=O)(=O)c2ccc(S(=O)(=O)N(C)C)cc2)CC1` [Example 45, N1,N1-dimethyl-N4-(2-(4-propoxypiperidin-1-yl)phenyl)benzene-1,4-disulfonamide] reads 1.9 µM; that for `CN(C)S(=O)(=O)c1ccc(S(=O)(=O)Nc2ccccc2N2CCC(c3ccccc3)C2)cc1` (stereo not drawn) [Example 37, N1,N1-dimethyl-N4-[2-(3-phenylpyrrolidin-1-yl)phenyl]benzene-1,4-disulfonamide], 6.3 µM.

In the case of `CN(C)S(=O)(=O)c1ccc(S(=O)(=O)Nc2ccccc2N2CC3CCC2C3)cc1` (stereo not drawn) [Example 4, N4-(2-{2-azabicyclo[2.2.1]heptan-2-yl}phenyl)-N1,N1-dimethylbenzene-1,4-disulfonamide], the EC50 was 8.4 µM.

In the case of `CN(C)S(=O)(=O)c1ccc(S(=O)(=O)Nc2ccccc2N2CCOC(Cc3ccccc3)C2)cc1` (stereo not drawn) [Example 101, N1-(2-(2-benzylmorpholino)phenyl)-N4,N4-dimethylbenzene-1,4-disulfonamide], the EC50 was 4 µM. The result for `Cc1cc(S(=O)(=O)Nc2ccccc2N2CCN(C(=O)OC(C)(C)C)CC2)c(C)s1` [Example 59, tert-butyl 4-(2-((2,5-dimethylthiophene)-3-sulfonamido)phenyl)piperazine-1-carboxylate] reads 1.6 µM; that for `Cc1ncsc1C(=O)N1CCN(c2ccccc2NS(=O)(=O)c2ccc(S(=O)(=O)N(C)C)cc2)CC1` [Example 80, N1,N1-dimethyl-N4-{2-[4-(4-methyl-1,3-thiazole-5-carbonyl)piperazin-1-yl]phenyl}benzene-1,4-disulfonamide], 18.9 µM; that for `CN(C)c1ccc(S(=O)(=O)Nc2ccccc2N2CCCCC2)cc1` [Example 2, 4-(dimethylamino)-N-[2-(piperidin-1-yl)phenyl]benzene-1-sulfonamide], 58.9 µM. The result for `COC1CCCN(c2ccccc2NS(=O)(=O)c2ccc(S(=O)(=O)N(C)C)cc2)CC1` (single isomer, unassigned) [Example 42, N1-(2-(4-methoxyazepan-1-yl)phenyl)-N4,N4-dimethylbenzene-1,4-disulfonamide] reads 5.6 µM. The result for `CN(C)S(=O)(=O)c1ccc(S(=O)(=O)Nc2ccccc2N2CCOC(c3ccccc3)C2)cc1` (stereo not drawn) [Example 100, N1,N1-dimethyl-N4-(2-(2-phenylmorpholino)phenyl)benzene-1,4-disulfonamide] reads 6.8 µM; that for `COC1CCCN(c2ccccc2NS(=O)(=O)c2ccc(S(=O)(=O)N(C)C)cc2)CC1` (single isomer, unassigned) [Example 41, N1-(2-(4-methoxyazepan-1-yl)phenyl)-N4,N4-dimethylbenzene-1,4-disulfonamide], 4.4 µM.

Turning to `CN(C)S(=O)(=O)c1ccc(S(=O)(=O)Nc2ccccc2N2CCCC2)cc1` [Example 32, N1,N1-dimethyl-N4-[2-(pyrrolidin-1-yl)phenyl]benzene-1,4-disulfonamide], the 50% effective concentration (EC50) was determined as 19.2 µM.

One may read the EC50 as the concentration at which the effect is half-maximal.
